How the values were obtained:
[1] = system: Uterine Eosinophil Peroxidase (EPO); experiment: Uterine Eosinophil Peroxidase (EPO) Assay in ovariectomized rats; type: in vivo; parameters: unit not given here; conditions: Vmaximum, * p<0.05
Description: (§1) Seventy-five day old female Sprague Dawley rats (weight range of 200 to 225g) are obtained from Charles River Laboratories (Portage, MI). The animals are either bilaterally ovariectomized (OVX) or exposed to a Sham surgical procedure at Charles River Laboratories, and then shipped after one week. Upon arrival, they are housed in metal hanging cages in groups of 3 or 4 per cage and have ad libitum access to food (calcium content approximately 0.5%) and water for one week. Room temperature is maintained at 22.2° ± 1.7° C with a minimum relative humidity of 40%. The photoperiod in the room is 12 hours light and 12 hours dark.
(§2) Dosing Regimen Tissue Collection. After a one week acclimation period (therefore, two weeks post-OVX) daily dosing with test compound is initiated. 17α-ethynyl estradiol or the test compound are given orally, unless otherwise stated, as a suspension in 1% carboxymethylcellulose or dissolved in 20% cyclodextrin. Animals are dosed daily for 4 days. Following the dosing regimen, animals are weighed and anesthetized with a ketamine: Xylazine (2:1, V:V) mixture and a blood sample is collected by cardiac puncture. The animals are then sacrificed by asphyxiation with CO2, the uterus is removed through a midline incision, and a wet uterine weight is determined.
Uterine Eosinophil Peroxidase (EPO) Assay. Uteri are kept at 4° C until time of enzymatic analysis. The uteri are then homogenized in 50 volumes of 50 mM Tris buffer (pH - 8.0) containing 0.005% Triton X-100. Upon addition of 0.01% hydrogen peroxide and 10 mM o-phenylenediamine (final concentrations) in Tris buffer, increase in absorbance is monitored for one minute at 450 nm. The presence of eosonophils in the uterus is an indication of estrogenic activity of a compound. The maximal velocity of a 15 second interval is determined over the initial, linear portion of the reaction curve.

[2] = system: female Sprague Dawley rats; experiment: Uterine wet weight in the post-menopausal (ovariectomized rat) model, 4 days of oral dosing; type: in vivo; conditions: % increase versus the ovariectomized controls, * p<0.05
Description: (§3) In the examples illustrating the methods, a post-menopausal model was used in which effects of different treatments upon circulating lipids were determined.
as §1, §2

[3] = system: Serum cholesterol; experiment: Serum cholesterol analysis in ovariectomized rats; type: in vivo; conditions: decrease versus ovariectomized controls, * p<0.05
Description: as §3, §1, §2
Cholesterol Analysis. Blood samples are allowed to clot at ambient temperature for 2 hours, and serum is obtained following centrifugation for 10 minutes at 3000 rpm. Serum cholesterol is determined using a Boehringer Mannheim Diagnostics high performance cholesterol assay. Briefly, the cholesterol is oxidized to cholest-4-en-3-one and hydrogen peroxide. The hydrogen peroxide is then reacted with phenol and 4-aminophenazone in the presence of peroxidase to produce a p-quinone imine dye, which is read spectrophotemetrically at 500 nm. Cholesterol concentration is then calculated against a standard curve.

[4] = system: MCF-7 breast adenocarcinoma cells (ATCC HTB 22); experiment: MCF-7 Proliferation Assay (tritiated thymidine uptake); type: cell-based; conditions: MCF-7 cells, 48 hours with drug, tritiated thymidine pulse 4 hours
Description: MCF-7 Proliferation Assay
MCF-7 breast adenocarcinoma cells (ATCC HTB 22) were maintained in MEM (minimal essential medium, phenol red-free, Sigma, St. Louis, MO) supplemented with 10% fetal bovine serum (FBS) (V/V), L-glutamine (2 mM), sodium pyruvate (1 mM), HEPES {(N-[2-hydroxyethyl]piperazine-N'-[2-ethanesulfonic acid] 10 mM}, non-essential amino acids and bovine insulin (1 ug/mL) (maintenance medium). Ten days prior to assay, MCF-7 cells were switched to maintenance medium supplemented with 10% dextran coated charcoal stripped fetal bovine serum (DCC-FBS) assay medium) in place of 10% FBS to deplete internal stores of steroids. MCF-7 cells were removed from maintenance flasks using cell dissociation medium [Ca++/Mg++ free HBSS (phenol red-free) supplemented with 10 mM HEPES and 2 mM EDTA]. Cells were washed twice with assay medium and adjusted to 80,000 cells/mL. Approximately […] (8,000 cells) were added to flat-bottom microculture wells (Costar 3596) and incubated at 37° C in a 5% CO2 humidified incubator for 48 hours to allow for cell adherence and equilibration after transfer. Serial dilutions of drugs or DMSO as a diluent control were prepared in assay medium and […] to triplicate microcultures followed by […] assay medium for a final volume of […]. After an additional 48 hours at 37° C in a 5% CO2 humidified incubator, microcultures were pulsed with tritiated thymidine (1 µCi/well) for 4 hours. Cultures were terminated by freezing at -70° C for 24 hours followed by thawing and harvesting of microcultures using a Skatron Semiautomatic Cell Harvester. Samples were counted by liquid scintillation using a Wallac BetaPlace β counter. The compounds of formula I are active and potent in inhibiting the tumor cell growth, see: Table 2.

In the case of `C#C[C@]1(O)CC[C@H]2[C@@H]3CCc4cc(O)ccc4[C@H]3CC[C@@]21C` [EE2, 17-α-Ethynyl-estradiol, reference compound], the “Uterine EPO (Vmax)” value ([1]; dose printed as 0. mg/kg PO) is reported as 142.4*, the “Uterine Wt. (% Inc.)” value ([2]; dose printed as 0. mg/kg PO) is reported as 171.2* % and the “Serum Cholesterol (% Dec.)” value ([3]; dose printed as 0. mg/kg PO) is reported as 85.1* %.

For `COC(=O)c1ccc2c(C(=O)c3ccc(OCCN4CCCCC4)cc3)c(-c3ccc(O)cc3)sc2c1.Cl` [Example 1, [2-(4-Hydroxyphenyl)-6-methoxycarbonylbenzo[b]thien-3-yl][4-[2-(1-piperidinyl)ethoxy]phenyl]methanone Hydrochloride], the IC50 ([4]; Homo sapiens, MCF7) was 40 nM, the “Uterine EPO (Vmax)” value ([1]; 0.1 mg/kg PO) was 4.5 and the “Uterine EPO (Vmax)” value ([1]; 1 mg/kg PO) was 4.8. For the same compound, the “Uterine EPO (Vmax)” value ([1]; 10 mg/kg PO) was 7.5, the “Uterine Wt. (% Inc.)” value ([2]; 0.1 mg/kg PO) was 46.9* % and the “Uterine Wt. (% Inc.)” value ([2]; 1 mg/kg PO) was 19.1%. For the same compound, the “Uterine Wt. (% Inc.)” value ([2]; 10 mg/kg PO) was 45.2* %, the “Serum Cholesterol (% Dec.)” value ([3]; 0.1 mg/kg PO) was -8.6% and the “Serum Cholesterol (% Dec.)” value ([3]; 1 mg/kg PO) was 42.5* %. The “Serum Cholesterol (% Dec.)” value ([3]; 10 mg/kg PO) was 56.1* %.

In the case of `CCCCOC(=O)c1ccc2c(C(=O)c3ccc(OCCN4CCCCC4)cc3)c(-c3ccc(O)cc3)sc2c1` [Example 2, [2-(4-Hydroxyphenyl)-6-n-butoxycarbonylbenzo[b]thien-3-yl][4-[2-(1-piperidinyl)ethoxy]phenyl]methanone], the IC50 ([4]; Homo sapiens, MCF7) is reported as 45 nM, the “Uterine EPO (Vmax)” value ([1]; 0.1 mg/kg PO) is reported as 2.4 and the “Uterine EPO (Vmax)” value ([1]; 1 mg/kg PO) is reported as 0.0. The “Uterine EPO (Vmax)” value ([1]; 10 mg/kg PO) was 4.8, the “Uterine Wt. (% Inc.)” value ([2]; 0.1 mg/kg PO) was 19.4% and the “Uterine Wt. (% Inc.)” value ([2]; 1 mg/kg PO) was 16.8%. The “Uterine Wt. (% Inc.)” value ([2]; 10 mg/kg PO) was 52.5* %, the “Serum Cholesterol (% Dec.)” value ([3]; 0.1 mg/kg PO) was -1.2% and the “Serum Cholesterol (% Dec.)” value ([3]; 1 mg/kg PO) was 26.7%. For the same compound, the “Serum Cholesterol (% Dec.)” value ([3]; 10 mg/kg PO) was 55.6* %.

`CC(C)COC(=O)c1ccc2c(C(=O)c3ccc(OCCN4CCCCC4)cc3)c(-c3ccc(O)cc3)sc2c1` [Example 3] was tested, and the IC50 [4] was 45 nM, the “Uterine EPO (Vmax)” value ([1]; 0.1 mg/kg PO) was 3.3 and the “Uterine EPO (Vmax)” value ([1]; 1 mg/kg PO) was 3.3. The “Uterine EPO (Vmax)” value ([1]; 10 mg/kg PO) was 4.8, the “Uterine Wt. (% Inc.)” value ([2]; 0.1 mg/kg PO) was 11.8% and the “Uterine Wt. (% Inc.)” value ([2]; 1 mg/kg PO) was 21.7%. The “Uterine Wt. (% Inc.)” value ([2]; 10 mg/kg PO) was 47.1* %, the “Serum Cholesterol (% Dec.)” value ([3]; 0.1 mg/kg PO) was -2.4% and the “Serum Cholesterol (% Dec.)” value ([3]; 1 mg/kg PO) was 8.7%. For the same compound, the “Serum Cholesterol (% Dec.)” value ([3]; 10 mg/kg PO) was 58.0* %.

`Cl.O=C(O)c1ccc2c(C(=O)c3ccc(OCCN4CCCCC4)cc3)c(-c3ccc(O)cc3)sc2c1` [Example 4, [2-(4-Hydroxyphenyl)-6-carboxybenzo[b]thien-3-yl][4-[2-(1-piperidinyl)ethoxy]phenyl]methanone Hydrochloride] was tested, and the “Uterine EPO (Vmax)” value ([1]; 0.1 mg/kg PO) was 3.3, the “Uterine EPO (Vmax)” value ([1]; 1 mg/kg PO) was 3.0 and the “Uterine EPO (Vmax)” value ([1]; 10 mg/kg PO) was 3.6. For the same compound, the “Uterine Wt. (% Inc.)” value ([2]; 0.1 mg/kg PO) was 18.8%, the “Uterine Wt. (% Inc.)” value ([2]; 1 mg/kg PO) was 27.2% and the “Uterine Wt. (% Inc.)” value ([2]; 10 mg/kg PO) was 29.6* %. The “Serum Cholesterol (% Dec.)” value ([3]; 0.1 mg/kg PO) was 0.6%, the “Serum Cholesterol (% Dec.)” value ([3]; 1 mg/kg PO) was 10.4% and the “Serum Cholesterol (% Dec.)” value ([3]; 10 mg/kg PO) was 44.9* %.

With `CC(=O)c1ccc2c(C(=O)c3ccc(OCCN4CCCCC4)cc3)c(-c3ccc(O)cc3)sc2c1` [Example 5, [2-(4-Hydroxyphenyl)-6-acetylbenzo[b]thien-3-yl][4-[2-(1-piperidinyl)ethoxy]phenyl]methanone] the IC50 ([4]; Homo sapiens, MCF7) was 60 nM, the “Uterine EPO (Vmax)” value ([1]; 0.1 mg/kg PO) was 1.2 and the “Uterine EPO (Vmax)” value ([1]; 1 mg/kg PO) was 2.1. The “Uterine EPO (Vmax)” value ([1]; 10 mg/kg PO) was 5.4, the “Uterine Wt. (% Inc.)” value ([2]; 0.1 mg/kg PO) was 18.8% and the “Uterine Wt. (% Inc.)” value ([2]; 1 mg/kg PO) was 51.8* %. For the same compound, the “Uterine Wt. (% Inc.)” value ([2]; 10 mg/kg PO) was 69.4* %, the “Serum Cholesterol (% Dec.)” value ([3]; 0.1 mg/kg PO) was -6.3% and the “Serum Cholesterol (% Dec.)” value ([3]; 1 mg/kg PO) was 20.4%. The “Serum Cholesterol (% Dec.)” value ([3]; 10 mg/kg PO) was 45.4* %.

In the case of `C#Cc1ccc2c(C(=O)c3ccc(OCCN4CCCCC4)cc3)c(-c3ccc(O)cc3)sc2c1` [Example 6, [2-(4-Hydroxyphenyl)-6-ethynylbenzo[b]thien-3-yl][4-[2-(1-piperidinyl)ethoxy]phenyl]methanone], the IC50 ([4]; Homo sapiens, MCF7) is reported as 20 nM, the “Uterine EPO (Vmax)” value ([1]; 0.1 mg/kg PO) is reported as 3.9 and the “Uterine EPO (Vmax)” value ([1]; 1 mg/kg PO) is reported as 4.8. For the same compound, the “Uterine EPO (Vmax)” value ([1]; 10 mg/kg PO) was 4.8, the “Uterine Wt. (% Inc.)” value ([2]; 0.1 mg/kg PO) was 14.3% and the “Uterine Wt. (% Inc.)” value ([2]; 1 mg/kg PO) was 27.8%. The “Uterine Wt. (% Inc.)” value ([2]; 10 mg/kg PO) was 22.5%, the “Serum Cholesterol (% Dec.)” value ([3]; 0.1 mg/kg PO) was 39.4* % and the “Serum Cholesterol (% Dec.)” value ([3]; 1 mg/kg PO) was 58.7* %. For the same compound, the “Serum Cholesterol (% Dec.)” value ([3]; 10 mg/kg PO) was 65.8* %.
